The source of these data is ChEMBL document CHEMBL1146612 (Bioorg Med Chem Lett, 2003).

Molecules are shown by their SMILES. Where only a bound is given, the exact number is not on record here.

The target in assay [1] is Histamine H1 receptor (Rattus norvegicus) (UniProt P31390). Put plainly: Ability to displace [3H]pyrilamine from histamine H1 receptor in male Sprague-Dawley rat brain membranes at 1 ug/mL. The format is tissue-based. The note with it: Membrane.
The target of assay [2] is Histamine H3 receptor (Cavia porcellus, UniProt Q9JI35). Put plainly: Binding affinity against H3 receptor in guinea pig brain using [3H]N-alpha-methyl histamine as radioligand.
The target of assay [3] is Histamine H1 receptor (Rattus norvegicus, UniProt P31390). Put plainly: Ability to displace [3H]pyrilamine from histamine H1 receptor in male Sprague-Dawley rat brain membranes. The format is tissue-based, Membrane.

For orientation: inhibition means the percentage by which the read-out fell short of the control. Low readings indicate little suppression, high ones strong suppression. For orientation: Ki means a measure of affinity in units of concentration, obtained from inhibition or displacement. Higher therefore signals a looser hold on the target.

Sequence of Histamine H1 receptor (P31390 whole entry): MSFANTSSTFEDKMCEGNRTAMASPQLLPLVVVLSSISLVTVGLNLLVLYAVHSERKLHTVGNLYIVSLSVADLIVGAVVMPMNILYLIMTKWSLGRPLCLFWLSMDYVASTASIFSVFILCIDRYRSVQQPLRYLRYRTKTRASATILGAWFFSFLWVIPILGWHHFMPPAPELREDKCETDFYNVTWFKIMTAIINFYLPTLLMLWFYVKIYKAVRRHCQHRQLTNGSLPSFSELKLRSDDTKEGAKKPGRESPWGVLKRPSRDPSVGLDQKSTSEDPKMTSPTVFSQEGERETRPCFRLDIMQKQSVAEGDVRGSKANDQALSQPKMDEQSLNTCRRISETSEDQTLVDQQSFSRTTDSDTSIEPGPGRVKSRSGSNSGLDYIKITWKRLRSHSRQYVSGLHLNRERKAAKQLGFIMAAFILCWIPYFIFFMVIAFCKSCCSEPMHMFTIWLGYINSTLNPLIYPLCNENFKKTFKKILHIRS
Sequence of Histamine H1 receptor (Rattus norvegicus) (P31390 whole entry): as above
Sequence of Histamine H3 receptor (Q9JI35 whole entry): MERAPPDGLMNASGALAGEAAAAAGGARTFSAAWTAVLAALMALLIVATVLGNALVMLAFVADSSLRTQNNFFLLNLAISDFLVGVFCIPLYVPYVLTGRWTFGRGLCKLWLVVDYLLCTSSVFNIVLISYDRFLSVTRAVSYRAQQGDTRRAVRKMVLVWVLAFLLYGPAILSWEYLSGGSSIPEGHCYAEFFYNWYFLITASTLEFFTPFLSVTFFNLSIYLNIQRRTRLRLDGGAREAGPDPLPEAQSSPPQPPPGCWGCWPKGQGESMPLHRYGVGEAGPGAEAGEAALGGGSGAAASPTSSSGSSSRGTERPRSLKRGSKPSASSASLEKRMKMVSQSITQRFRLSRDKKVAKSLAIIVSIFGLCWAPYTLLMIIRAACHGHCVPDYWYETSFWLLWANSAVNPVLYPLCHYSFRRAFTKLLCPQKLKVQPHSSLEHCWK

Turning to `CN(CCc1c[nH]cn1)C(=O)CC(c1ccc(Cl)cc1)c1ccccn1` (stereo not given), the inhibition in assay [1] is below 50%.

Consider `CN(CCC(c1ccc(Cl)cc1)c1ccccn1)C(=O)CCc1c[nH]cn1` (stereo not given), for which the inhibition in assay [1] is below 50%. For `O=C(NCCCCc1cnc[nH]1)NCCC(c1ccc(Cl)cc1)c1ccccn1` (stereo not given), the figures for the Ki in assay [2] and in assay [3] were 0.023 µM and 0.92 µM, respectively. `CN(CCCCCc1c[nH]cn1)CCC(c1ccc(Cl)cc1)c1ccccn1` (stereo not given): the figures for the inhibition constant Ki in assay [2] and in assay [3] were 0.05 µM and 0.006 µM, respectively. In turn, `O=C(CC(c1ccc(Cl)cc1)c1ccccn1)NCCc1c[nH]cn1` (stereo not given) showed an inhibition in assay [1] below 50%.

The molecule `N=C(CC(c1ccc(Cl)cc1)c1ccccn1)NCCc1c[nH]cn1` (stereo not given) came in with an inhibition in assay [1] below 50%.

For the molecule `Clc1ccc(C(CCNCCCc2c[nH]cn2)c2ccccn2)cc1` (stereo not given), the inhibition in assay [1] is below 50%. On the same count and under the same terms, to `O=C(CCc1c[nH]cn1)NCCC(c1ccc(Cl)cc1)c1ccccn1` (stereo not given) belongs below 50%. In assay [2], `CN(CCCCc1c[nH]cn1)C(=O)CC(c1ccc(Cl)cc1)c1ccccn1` (stereo not given) gave an inhibitory constant (Ki) of 0.007 µM. Besides, the inhibition in assay [1] was below 50%. As for `c1ccc(C(CCNCCCCc2c[nH]cn2)c2ccccn2)nc1`, in assay [2], the inhibitory constant (Ki) is 0.004 µM. Moreover, in assay [1], the inhibition is below 50%. In assay [2], `O=C(CC(c1ccccn1)c1ccccn1)NCCCCc1c[nH]cn1` showed a Ki of 0.001 µM. Also, in assay [1], the inhibition is below 50%.

Regarding `Clc1ccc(C(CCNCCCCCc2cnc[nH]2)c2ccccn2)cc1` (stereo not given), the Ki in assay [2] was 0.033 µM; in assay [3] it was 0.039 µM. In assay [2], `O=C(CC(c1ccc(Cl)cc1)c1ccccn1)NCCCCc1c[nH]cn1` (stereo not given) showed an inhibition constant Ki of 0.001 µM. The inhibition in assay [1] was below 50%.
